Measurements published in patent publication US11591337B2, “Substituted [1,2,4]triazolo[4,3-a]pyrazines as modulators of mGlu5 receptors” (Recordati Industria Chimica e Farmaceutica S.p.A., priority 2018, dated 2023).

Legend:
mGlu5 receptor [1] = target: T1, mGlu5 receptor (Homo sapiens, UniProt P41594); experiment: Radioligand binding assay ([3H]MPEP) at cloned mGluR5; conditions: CHO T-REx h-mGluR5 cells, 4 nM [3H]MPEP, 60 min at 25° C.; read-out: affinity (Ki) for mGlu5 receptor
T1 construct: Human mGluR5 open reading frame (ORF), comprehensive of the stop codon, were cloned into the pcDNA4/TO/myc-His™ A vector; expressed in transfected cells
Description: Cell lines stably transfected were generated using inducible expression vectors encoding human mGlu5 receptor using the Tetracycline-Regulated Expression system (T-REx™ system, Invitrogen, Life Technologies). Human mGluR5 open reading frame (ORF), comprehensive of the stop codon, were cloned into the pcDNA4/TO/myc-His™ A vector, carrying the TetO2. The insertion site was HindIII-PstI for mGluR5 receptors. The obtained constructs were then transfected into the T-REx CHO™ cell line using the FuGENE protocol (Roche); the CHO T-REx™ cell line stably expresses the Tet repressor (from the pcDNA6/TR plasmid) under the selection of blasticidin, 10 μg/ml. […] The expression of h-mGluR5 receptors was de-repressed with 1 μg/ml tetracycline for 18 h before binding experimentation, while the expression of h-mGluR5 receptors was derepressed respectively with 3 ng/ml and 10 ng/ml tetracycline for 18 h before calcium fluorescence experimentation.
Affinity at transmembrane glutamate metabotropic mGluR5 receptor subtypes was evaluated according to the methods of Anderson (Anderson et al., J Pharmacol. Exp. Ther., (2002), Vol. 303(3), pp. 1044-51), with some modifications. […] Non-specific binding was determined in the presence of 10 μM MPEP. […] The filters were then washed with cold buffer and the radioactivity retained on the filters was counted by liquid scintillation spectrometry (Betaplate 1204 BS-Wallac). […]

mGlu5 receptor [2] = target: T1, mGlu5 receptor; experiment: Functional activity at mGlu5 receptor as calcium fluorescence measurements; assay type: cell-based
Description: Cell lines stably transfected were generated using inducible expression vectors encoding human mGlu5 receptor using the Tetracycline-Regulated Expression system (T-REx™ system, Invitrogen, Life Technologies). Human mGluR5 open reading frame (ORF), comprehensive of the stop codon, were cloned into the pcDNA4/TO/myc-His™ A vector, carrying the TetO2. The insertion site was HindIII-PstI for mGluR5 receptors. The obtained constructs were then transfected into the T-REx CHO™ cell line using the FuGENE protocol (Roche); the CHO T-REx™ cell line stably expresses the Tet repressor (from the pcDNA6/TR plasmid) under the selection of blasticidin, 10 μg/ml. Stable clones were obtained selecting with zeocin 1 mg/ml and maintaining in ULTRA CHO medium (LONZA) supplemented with dialyzed FBS, zeocin, blasticidin, at 37° C., in an atmosphere of 5% CO2. The expression of h-mGluR5 receptors was de-repressed with 1 μg/ml tetracycline for 18 h before binding experimentation, while the expression of h-mGluR5 receptors was derepressed respectively with 3 ng/ml and 10 ng/ml tetracycline for 18 h before calcium fluorescence experimentation.
Cells were seeded into black-walled, clear-bottom, 96-well plates at a density of 80000 cell/well, in RPMI (without Phenol Red, without L-glutamine; Gibco LifeTechnologies, CA) supplemented with 10% dialyzed FBS. Following 18-h incubation with tetracycline, the cells were loaded with 2 mM Ca^2+- sensitive fluorescent dye Fluo-4/AM (Molecular Probes) in Hanks' balanced saline solution (HBSS, Gibco LifeTechnologies, CA) with […] Hepes (Sigma) and 2.5 mM probenecid (Sigma), for 1 h at 37° C. The cells were washed three times with HBSS to remove extracellular dye. Fluorescence signals were measured by using the fluorescence microplate reader Flexstation III (Molecular Devices) at sampling intervals of 1.5 s for 60 s.
The antagonist potency was determined using the EC80 of the quisqualate used as agonist and the potentiation of mGlu5 activation was determined using the EC20 of the agonist (quisqualate or glutamate). […]

T1 sequence (P41594 21-1212): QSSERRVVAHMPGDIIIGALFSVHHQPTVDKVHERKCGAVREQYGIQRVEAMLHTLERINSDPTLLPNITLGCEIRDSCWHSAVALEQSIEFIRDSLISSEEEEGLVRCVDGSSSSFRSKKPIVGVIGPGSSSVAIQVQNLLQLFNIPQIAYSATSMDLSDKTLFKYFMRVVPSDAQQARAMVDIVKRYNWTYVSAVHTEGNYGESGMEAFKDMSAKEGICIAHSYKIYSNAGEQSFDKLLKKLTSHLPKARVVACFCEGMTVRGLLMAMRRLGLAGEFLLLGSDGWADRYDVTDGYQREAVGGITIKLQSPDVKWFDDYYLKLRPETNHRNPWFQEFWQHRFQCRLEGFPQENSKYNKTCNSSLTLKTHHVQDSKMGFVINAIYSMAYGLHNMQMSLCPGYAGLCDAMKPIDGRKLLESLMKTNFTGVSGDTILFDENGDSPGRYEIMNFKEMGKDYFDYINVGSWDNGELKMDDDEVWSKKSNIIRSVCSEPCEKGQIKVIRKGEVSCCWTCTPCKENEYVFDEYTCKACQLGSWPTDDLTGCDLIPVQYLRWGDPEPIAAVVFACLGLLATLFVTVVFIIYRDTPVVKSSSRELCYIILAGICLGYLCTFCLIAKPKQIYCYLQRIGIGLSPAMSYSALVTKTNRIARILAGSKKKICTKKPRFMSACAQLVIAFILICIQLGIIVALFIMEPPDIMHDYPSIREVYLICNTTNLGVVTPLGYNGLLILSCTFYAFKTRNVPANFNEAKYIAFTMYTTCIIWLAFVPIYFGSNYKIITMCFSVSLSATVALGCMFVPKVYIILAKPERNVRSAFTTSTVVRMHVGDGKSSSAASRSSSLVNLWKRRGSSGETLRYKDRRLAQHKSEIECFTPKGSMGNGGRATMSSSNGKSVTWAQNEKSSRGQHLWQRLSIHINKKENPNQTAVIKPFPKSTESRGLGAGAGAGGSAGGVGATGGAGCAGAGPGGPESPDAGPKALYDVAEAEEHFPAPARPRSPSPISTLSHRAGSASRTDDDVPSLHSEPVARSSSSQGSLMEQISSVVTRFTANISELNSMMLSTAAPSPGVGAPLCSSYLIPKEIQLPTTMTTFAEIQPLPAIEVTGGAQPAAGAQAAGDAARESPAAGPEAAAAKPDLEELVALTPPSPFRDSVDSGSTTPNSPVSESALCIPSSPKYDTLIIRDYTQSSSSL

SMILES | Ki (mGlu5 receptor [1]) [nM] | EC50 (mGlu5 receptor [2]; potentiation of mGlu5 activation at EC20 of the agonist (quisqualate or glutamate), read-out: positive allosteric activity EC50) [nM] | type of allosteric modulation (mGlu5 receptor [2]) | IC50 (mGlu5 receptor [2]; antagonist potency at EC80 of quisqualate, read-out: negative allosteric modulation activity IC50) [nM]
O=C(c1cccc(Cl)c1)N1CCn2c(C#Cc3cccc(Cl)c3)nnc2C1 [Example 8, (3-Chlorophenyl)-[3-[2-(3-chlorophenyl)ethynyl]-6,8-dihydro-5H-[1,2,4]triazolo[4,3-a]pyrazin-7-yl]methanone] | 33.8 | 294 | – | –
CCN(C)C(=O)N1CCn2c(C#Cc3cccc(C)c3)nnc2C1 [Example 40, N-Ethyl-N-methyl-3-[2-(m-tolyl)ethynyl]-6,8-dihydro-5H-[1,2,4]triazolo[4,3-a]pyrazine-7-carboxamide] | 32 | – | negative allosteric modulator | 60.9
